1 substance from patent US11360080B2, “AhR-ROR-γt complex as a biomarker and therapeutic target for autoimmune disease and IL-17A-associated disease” (NATIONAL HEALTH RESEARCH INSTITUTES, priority 2018, dated 2022) can be followed below.

The data set deals with GLK. Briefly: GLK shRNA knockdown in T cells of Lck-GLK Tg mice, flow cytometry of IL-17A-producing T cells. The settings on record: anti-CD3 3 h, day 3 post-transfection. The class given is cell-based, mouse. As to the method: (A) Hematoxylin and eosin-stained sections of indicated organs from mice. Arrows, infiltrating immune cells. Bar, 100 μm. (B) Levels of serum autoantibodies from mice were determined by ELISA assays. The levels are presented relative to the value from one of wild-type mice. (C) The serum levels of cytokines in mice were determined by ELISA assays. (D) The serum levels of autoantibodies in Lck-GLK and Lck-GLK/IL-17A KO mice were determined by ELISA assays. The levels are presented relative to the value from one of Lck-GLK mice. (E) IL-17A expression was attenuated by GLK shRNA. Murine primary splenic T cells were transfected with GFP-human GLK shRNA and a control GFP vector. The transfected T cells were stimulated with anti-mouse CD3 antibodies for 3 h and then determined by flow cytometry at day 3 post-transfection. […] WT, wild-type littermate controls; Lck-GLK, T-cell-specific GLK transgenic mice. Lck-GLK/IL-17A KO, Lck-GLK; IL-17A-deficient mice. ANA, anti-nuclear antibody; α-dsDNA, anti-dsDNA antibody; RF, rheumatoid factor. *, P value<0.05; **, P value<0.01 (two-tailed Student's t-test).
Human Jurkat T leukaemia cells (TIB-152) were cultured in RPMI-1640 medium (Invitrogen) containing 10% fetal calf serum plus penicillin (10 units per ml) and streptomycin ([…]). […]
On the technique in general: In flow cytometry, cells or beads pass a laser one at a time.

Consider “GLK shRNA: human GLK shRNA (5′-GTGCCACTTAGAATGTTTGAAA-3, SEQ ID NO: 7) subcloned into pSUPER-GFP vector”, for which the “IL-17A overproduction in T cells from Lck-GLK Tg mice” value is listed as “abolished”.
